Assay results: patent publication US10828315B2 (Madrigal Pharmaceuticals, Inc., priority 2013, dated 2020)
“And” between values parts separate entries of the source, which are not always exact repeats. Equal entries are not always repeated. Where two headings read alike, the source gives them in different places. Blank lines part the entries; values can stand above or below the compound they belong to.

Assays:
Human H3122 NSCLC cells = experiment: Cell viability assay (CellTiter-Glo) in H3122 cells (Example 4); assay type: cell-based; conditions: NCI-H3122
Protocol: Human H3122 NSCLC cells were obtained and grown in RPMI in the presence of fetal bovine serum (10%), 2 mM L-glutamine and antibiotics (100 IU/ml penicillin and 100 μg/ml streptomycin, Sigma Aldrich.) Cells were maintained at 37° C., 5% CO2 atmosphere.
Cell viability was measured using the CellTiter-Glo® assay (Promega). In brief, cells were plated in 96-well plates in triplicate at optimal seeding density (determined empirically) and incubated at 37° C., 5% CO2 atmosphere for 24 hr prior to the addition of drug or vehicle (0.3% DMSO) to the culture medium. At the end of the assay, CellTiter-Glo was added to the wells per manufacturer's recommendation, shaken for two minutes and incubated for 10 minutes at room temperature. Luminescence (0.1 sec) was measured with a Victor II microplate reader (Perkin Elmer) and the resulting data were used to calculate cell viability, normalized to vehicle control.
Cells as described above were treated with exemplary SDC-TRAPs and their viability determined as above as well. The following table illustrates the results.

[1] = Stability in human plasma, 2 h at 37° C. (Example 5); assay type: in vitro ADME; conditions: human plasma
Protocol: (§1) SDC-TRAP-0022 and SDC-TRAP-0028 were incubated in human and mouse plasma for 2 h at 37° C. and assayed for integrity at 0.25, 0.5, 1 and 2 h. The values reported below are the remaining of the parent compound at the end of the 2 h incubation period.

[2] = Stability in mouse plasma, 2 h at 37° C. (Example 5); assay type: in vitro ADME; conditions: mouse plasma
Protocol: as §1

HER2 [3] = experiment: HER2 degradation in BT-474 cells (Example 3, Methods 1 and 2); assay type: cell-based, human
How it was run: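 BT-474 cells treated 24 h at 37 °C with 10-point 3-fold compound dilutions; HER2 read by in-cell immunofluorescence after paraformaldehyde fixation, signal normalized to DRAQ5 nuclear stain, EC50 from curve fit. Degradation also checked by western blot of cytosolic lysates against tubulin.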

[4] = Mouse plasma stability protocol, up to 1 h (Examples 16-18)
H 3211 NSLC cells = experiment: IC50 of continuous and pulsed exposure (Examples 9 and 10); assay type: cell-based
HER2 [5] = experiment: HER2 degradation assay with BT-474 cell line (Example 12, FACS); assay type: cell-based, human
Hsp90α = molecular target: T1, Hsp90α (Homo sapiens, UniProt P07900); experiment: Hsp90α binding assay (fluorescence polarization, FITC-labeled geldanamycin; Example 11); conditions: read-out: EC50 (Hsp90 binding assay)
T1 construct: purchased BPS Bioscience 50294
Protocol: An Hsp90^α fluorescence assay kit from BPS Bioscience (Cat #50294) containing Hsp90 recombinant enzyme, FITC-labeled geldanamycin, assay buffer and a low binding 384-well plate was used to assay Hsp90^α binding. Dithiothreitol (DTT) (Cat # D0643) and bovine serum albumin (BSA) (Cat # A2153) were obtained from Sigma-Aldrich. Fluorescence polarization was measured using a PHERAstar microplate reader (BMG LABTECH GmbH, Orienberg, Germany.)
The compounds were diluted to 1 mM in DMSO and loaded into a compound dilution plate to make 3-fold dilutions yielding a total of 8 concentrations. […] 5 mL of Hsp90^□ binding solution was prepared having a final concentration of 7 ng/[…]binding^□, 5 nM FITC-labeled geldanamycin, 2 mM DTT and 0.1 mg/mL BSA. 49 μL of binding solution was added to each microplate well, incubated at room temperature for 1 hour, then read using the PHERAstar microplate reader. The high control sample contained no compound plus Hsp90^α; the low control sample contained no compound and no Hsp90^α. […] The IC50 was calculated using GraphPad Prism 4 software.

[6] = test system: human urinary bladder cancer cell line SW780; experiment: Cytotoxicity assay (CellTiter-Glo, 72 h), SW780; assay type: cell-based; conditions: SW780, 72 hours, read-out: Cytotoxicity (IC50, nM) SW-780
[7] = test system: human breast cancer cell line BT-474; experiment: Cytotoxicity assay (CellTiter-Glo, 72 h), BT-474; assay type: cell-based; conditions: BT-474, 72 hours, read-out: Cytotoxicity (IC50, nM) BT-474
[8] = test system: human urinary bladder cancer cell line RT-112; experiment: Cytotoxicity assay (CellTiter-Glo, 72 h), RT-112; assay type: cell-based; conditions: RT-112, 72 hours, read-out: Cytotoxicity (IC50, nM) RT-112
[9] = Artificial membrane permeability assay (PAMPA); conditions: same protocol, second table
[10] = test system: H2AX phosphorylation, HSP70, EGFR, MET; experiment: Pharmacodynamics in CRC (HCT-116) xenograft tumors; assay type: in vivo, mouse; conditions: for H2AX phosphorylation: 24 hr
[11] = Tissue distribution of ganetespib in mice bearing RERF human NSCLC xenografts; conditions: ganetespib 50 mg/kg IV
[12] = test system: Hsp90 client proteins (EGFR, MET, CDC2), Hsp70, DNA damage markers; experiment: Pharmacodynamics in SCLC xenograft tumors; assay type: in vivo
[13] = test system: HCT-116 human colorectal xenografts; conditions: female, BALB/cA nude, mouse, in vivo, iv
[14] = mouse, plasma, 1 h, 10 µM
SK-OV-3 xenografts = experiment: Antitumor activity in SK-OV-3 ovarian cancer xenografts; assay type: in vivo, female Balb/c nude mice; conditions: SDC-TRAP-0063 200 mg/kg group; irinotecan alone and with ganetespib
Protocol: This model is sensitive to HSP90 inhibition.
However, once the dosing is discontinued all but 200 mg/kg of SDC-TRAP-0063 dose group maintained tumor growth inhibition for a prolonged period of time.

[15] = test system: HCT-116 human colorectal xenografts; experiment: Mouse xenograft efficacy in HCT-116 colon cancer model; conditions: mouse, in vivo
[16] = test system: human SCLC tumor xenografts; experiment: Antitumor activity in human SCLC tumor xenografts; assay type: in vivo, mice; conditions: SCLC xenografts; day 46
[17] = SCLC xenograft tumors, 24 hrs after drug exposure

Compound: CCc1c2c(nc3ccc(OC(=O)N(C)CCn4ccc5cc(-n6c(O)nnc6-c6cc(C(C)C)c(O)cc6O)ccc54)cc13)-c1cc3c(c(=O)n1C2)COC(=O)C3(O)CC (centres unmarked) [SDC-TRAP-0022, 4,11-diethyl-4-hydroxy-3,14-dioxo-3,4,12,14-tetrahydro-1H-pyrano[3′,4′:6,7]indolizino[1,2-b]quinolin-9-yl (2-(5-(3-(2,4-dihydroxy-5-isopropylphenyl)-5-hydroxy-4H-1,2,4-triazol-4-yl)-1H-indol-1-yl)ethyl)(methyl)carbamate]
IC50 (Human H3122 NSCLC cells): 492 nM
% Remaining 2 h (37° C.), HU ([1]; 1 μM): 29%
% Remaining 2 h (37° C.), HU ([1]; 10 μM): 30%
% Remaining 2 h (37° C.), MO ([2]; 1 μM): 32%
% Remaining 2 h (37° C.), MO ([2]; 10 μM): 31%
IC50 (HER2 [3]): > 5000 nM
% Remaining (1 h) ([4]; % Remaining of parent after 1 h incubation in mouse plasma at 37° C. (10 μM)): 21.0%
% Remaining (1 h, 37° C.) ([4]; mouse plasma, 1 h, 37° C.): 21%
IC50 (H 3211 NSLC cells; 1 h, read-out: IC50, 1h-pulse/71h-compound free, 7.5 × 10^3 cells/well, two replicate columns): > 3000 nM
IC50 (H 3211 NSLC cells; read-out: IC50, 1h-pulse/71h-compound free, 7.5 × 10^3 cells/well, two replicate columns): > 3000 nM
IC50 (H 3211 NSLC cells; read-out: IC50, 72h-continuous, 7.5 × 10^3 cells/well, three replicate columns): 193 nM and 823 nM and 460 nM
IC50 (HER2 [5]): > 5000 nM

Compound: CCNC(=O)c1nnc(-c2cc(C(C)C)c(O)cc2O)n1-c1ccc(Oc2ccc(C(=O)N[C@H]3C[C@H](O[C@H]4C[C@](O)(C(=O)CO)Cc5c(O)c6c(c(O)c54)C(=O)c4c(OC)cccc4C6=O)O[C@@H](C)[C@H]3O)cc2)cc1 [SDC-TRAP-0199, 5-(2,4-dihydroxy-5-isopropylphenyl)-N-ethyl-4-(4-(4-(((2S,3 S,4S,6R)-3-hydroxy-2-methyl-6-(((1S,3S)-3,5,12-trihydroxy-3-(2-hydroxyacetyl)-10-methoxy-6,11-dioxo-1,2,3,4,6,11-hexahydrotetracen-1-yl)oxy)tetrahydro-2H-pyran-4-yl)carbamoyl)phenoxy)phenyl)-4H-1,2,4-triazole-3-carboxamide]
EC50 (Hsp90α): 136 nM
IC50 [6]: 2300 nM
IC50 [7]: 29 nM
IC50 (HER2 [5]; BT-474 cells, overnight): > 10000 nM
IC50 [8]: 29 nM

Compound: CCNC(=O)c1nnc(-c2cc(C(C)C)c(O)cc2O)n1-c1ccc(OC2CCN(c3cnc(C(=O)N[C@H]4C[C@H](O[C@H]5C[C@](O)(C(=O)CO)Cc6c(O)c7c(c(O)c65)C(=O)c5c(OC)cccc5C7=O)O[C@@H](C)[C@H]4O)cn3)CC2)cc1 [SDC-TRAP-0200, 5-(4-(4-(3-(2,4-dihydroxy-5-isopropylphenyl)-5-(ethylcarbamoyl)-4H-1,2,4-triazol-4-yl)phenoxy)piperidin-1-yl)-N-((2S,3S,4S,6R)-3-hydroxy-2-methyl-6-(((1S,3S)-3,5,12-trihydroxy-3-(2-hydroxyacetyl)-10-methoxy-6,11-dioxo-1,2,3,4,6,11-hexahydrotetracen-1-yl)oxy)tetrahydro-2H-pyran-4-yl)pyrazine-2-carboxamide]
EC50 (Hsp90α): 253 nM
IC50 [6]: 651 nM
IC50 [7]: 32 nM
Mass Retention [9]: 10.6%
IC50 (HER2 [5]; BT-474 cells, overnight): > 10000 nM
IC50 [8]: 16 nM

plasma concentration ([11]; DRD, 24 hr): <LLOQ
mean concentration in plasma relative to RBC ([11]; 5 min): about 10 times
Compound: CC(C)c1cc(-c2n[nH]c(=O)n2-c2ccc3c(ccn3C)c2)c(O)cc1O [ganetespib, reference compound]
H2AX phosphorylation ([10]; HCT-116 tumors): induces H2AX phosphorylation
HSP70 and Hsp90 client protein (EGFR, MET) expression ([10]; HCT-116 tumors, 24 hr exposure): induces HSP70 expression and reduces the level of EGFR and MET compared to vehicle
persistence in tumor versus plasma and other tissues ([11]; up to 24 hr): persist longer in tumor than in plasma or any other tissues studied
Hsp90 client proteins (EGFR, MET, CDC2) and Hsp70 expression [12, 17]: Hsp90 clients EGFR, MET and CDC2 are diminished
markers for DNA damage (acetyl-histone H3, p53, p-H2AX) [12, 17]: increases p-H2AX but has negligible effects on p53 and histone H3

Compound: CCc1c2c(nc3ccc(OC(=O)N4CCC(N5CCCCC5)CC4)cc13)-c1cc3c(c(=O)n1C2)COC(=O)[C@]3(O)CC [irinotecan, reference compound]
animal death during the treatment [13]: 20-30%
% Remaining (1 h) [14]: 32.5%
antitumor activity in SK-OV-3 xenografts (FIG. 25) (SK-OV-3 xenografts): statistically significant inhibitory impact on the growth of SK-OV-3 xenografts
antitumor activity in HCT-116 xenografts (FIG. 23) [15]: significantly inhibited the growth of HCT-116 human colorectal xenografts
H2AX phosphorylation ([10]; HCT-116 tumors): stimulate H2AX phosphorylation at 24 hr
kinetics of H2AX phosphorylation ([10]; HCT-116 xenograft tumors): maximally induced at 4 hr and stable at 24 hr
mice found dead [16]: 1/8
kinetics of acetyl-histone H3 induction ([12]; SCLC xenograft tumors, 24, 72 and 96 hrs): maximal induction of acetyl-histone H3 by 24 hr
